Results taken from patent publication US20110224208A1, “NOVEL INHIBITORS OF FLAVIVIRUS REPLICATION” (KATHOLIEKE UNIVERSITEIT LEUVEN, K.U. LEUVEN R&D, priority 2008, published 2011).
Converted amounts (≈) assume the structure as drawn.

Key:
[1] = test system: HCV replicon I389luc-ubi-neo/NS3-3'/5.1; test: Anti-HCV replicon assay (luciferase activity) in Huh-5-2 cells; assay type: cell-based, Hepatitis C virus; conditions: Hepatitis C virus, Huh-5-2, 72 h, concentration required to inhibit luciferase activity in the replicon system by 50%
Method in brief: (§1)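 Huh-5-2 cells carrying the luciferase HCV replicon, seeded 24 h, then exposed to serial compound dilutions without G418 for 72 h at 37° C, 5% CO2. Replication read as luciferase luminescence, expressed as percentage of untreated cultures; culture density measured in parallel by MTS.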

[2] = test system: HCV replicon (RNA) synthesis; test: Quantitative analysis of HCV replicon RNA by Taqman real-time RT-PCR in Huh-5-2 cells; assay type: cell-based, Hepatitis C virus; conditions: for EC50: Hepatitis C virus, Huh-5-2, concentration required to reduce the synthesis of HCV replicon by 50% as determined by real-time quantitative RT-PCR; for CT: Huh-5-2 cells, untreated 26.27 ± 0.34; for Delta CT: higher Delta CT = more profound inhibition of viral RNA synthesis
Procedure: Replicon cells were plated at 7.5×10^3 cells per well in a 96-well plate plates at 37° C. and 5% CO2 in Dulbecco's modified essential medium containing 10% fetal calf serum, 1% nonessential amino acids and 1 mg/ml Geneticin. After allowing 24 h for cell attachment, different dilutions of compound were added to the cultures. Plates were incubated for 5 days, at which time RNA was extracted using the Qiamp Rneazyi Kit (Qiagen, Hilden, Germany). […] After initial activation of uracil-N-glycosylase at 50° C. for 2 minutes, RT was performed at 60° C. for 30 minutes, followed by inactivation of uracil-N-glycosylase at 95° C. for 5 minutes. Subsequent PCR amplification consisted of 40 cycles of denaturation at 94° C. for 20 seconds and annealing and extension at 62° C. for 1 minute in an ABI 7700 sequence detector. For each PCR run, negative template and positive template samples were used. The cycle threshold value (Ct-value) is defined as the number of PCR cycles for which the signal exceeds the baseline, which defines a positive value. The sample was considered to be positive if the Ct-value was <50. Results are expressed as genomic equivalents (GE).

[3] = Proliferation of exponentially growing Huh-5-2 cells (MTS method); conditions: human, CC50, concentration required to inhibit the proliferation of exponentially growing Huh-5-2 cells by 50%
Method in brief: as §1

Huh-5-2 cells = test: as above; conditions: concentration required to inhibit the proliferation of exponentially growing Huh-5-2 cells by 50%; Table 2
Method in brief: as §1

SMILES | IC50 [1] [µg/mL] | EC50 [2] [µg/mL] | CC50 at 72 h ([3]; Table 2) [µg/mL] | CC50 at 72 h ([3]; Table 4) [µg/mL] | other results
COCCN1C(=O)c2ccccc2C(C(=O)Nc2ccc(OC)c(OC)c2)C1c1cccs1 (centres unmarked) [C48, N-(3,4-dimethoxyphenyl)-2-(2-methoxyethyl)-1-oxo-3-(thiophen-2-yl)-1,2,3,4-tetrahydroisoquinoline-4-carboxamide] | 0.3 (≈ 0.643 µM) | 0.6 (≈ 1.29 µM) |  |  | 
COCCN1C(=O)c2ccccc2C(C(=O)Nc2ccc(Cl)cc2)C1c1cccs1 (centres unmarked) [C49, N-(4-chlorophenyl)-2-(2-methoxyethyl)-1-oxo-3-(thiophen-2-yl)-1,2,3,4-tetrahydroisoquinoline-4-carboxamide] | 0.1 (≈ 0.227 µM) | 0.85 (≈ 1.93 µM) |  |  | 
COCCN1C(=O)c2ccccc2C(C(=O)Nc2ccc(-c3noc(C)n3)cc2)C1c1cccs1 (centres unmarked) [C187, 2-(2-methoxyethyl)-N-(4-(5-methyl-1,2,4-oxadiazol-3-yl)phenyl)-1-oxo-3-(thiophen-2-yl)-1,2,3,4-tetrahydroisoquinoline-4-carboxamide] | 0.01 (≈ 0.0205 µM) | < 0.016 |  |  | 
COCCN1C(=O)c2ccccc2C(C(=O)Nc2ccc(-c3csc(C)n3)cc2)C1c1cccs1 (centres unmarked) [C157, 2-(2-methoxyethyl)-N-(4-(2-methylthiazol-4-yl)phenyl)-1-oxo-3-(thiophen-2-yl)-1,2,3,4-tetrahydroisoquinoline-4-carboxamide] | 0.04 (≈ 0.0794 µM) | 0.036 (≈ 0.0715 µM) |  |  | 
C#CC1C(C(=O)Nc2ccc(-n3cccc3)cc2)c2ccccc2C(=O)N1CCOC (centres unmarked) [C152, N-(4-(1H-pyrrol-1-yl)phenyl)-3-ethynyl-2-(2-methoxyethyl)-1-oxo-1,2,3,4-tetrahydroisoquinoline-4-carboxamide] | 0.2 (≈ 0.484 µM) | 0.2 (≈ 0.484 µM) | 30 (≈ 72.6 µM) | > 30 | 
COCCN1C(=O)c2ccccc2C(C(=O)Nc2ccc(-c3ncccn3)cc2)C1c1cccs1 (centres unmarked) [C175, 2-(2-methoxyethyl)-1-oxo-N-(4-(pyrimidin-2-yl)phenyl)-3-(thiophen-2-yl)-1,2,3,4-tetrahydroisoquinoline-4-carboxamide] | 0.057 (≈ 0.118 µM) | 0.046 (≈ 0.0949 µM) |  |  | 
COCCN1C(=O)c2ccccc2C(C(=O)Nc2ccc(-c3cnco3)cc2)C1c1cccs1 (centres unmarked) [C178, 2-(2-methoxyethyl)-N-(4-(oxazol-5-yl)phenyl)-1-oxo-3-(thiophen-2-yl)-1,2,3,4-tetrahydroisoquinoline-4-carboxamide] | 0.035 (≈ 0.0739 µM) | 0.036 (≈ 0.076 µM) |  |  | 
COCCN1C(=O)c2ccccc2C(C(=O)Nc2cc(C(C)(C)C)on2)C1c1cccs1 (centres unmarked) [C142, N-(5-tert-butylisoxazol-3-yl)-2-(2-methoxyethyl)-1-oxo-3-(thiophen-2-yl)-1,2,3,4-tetrahydroisoquinoline-4-carboxamide] | 0.04 (≈ 0.0882 µM) | 0.22 (≈ 0.485 µM) |  |  | 
COCCN1C(=O)c2c(F)cccc2C(C(=O)Nc2cccc(OC)c2)C1c1cccs1 (centres unmarked) [C51, 8-Fluoro-2-(2-methoxyethyl)-N-(3-methoxyphenyl)-1-oxo-3-(thiophen-2-yl)-1,2,3,4-tetrahydroisoquinoline-4-carboxamide] | 0.5 (≈ 1.1 µM) | < 0.4 |  |  | 
COCCN1C(=O)c2ccccc2C(C(=O)Nc2cccc(OC)c2)C1C#C[Si](C)(C)C (centres unmarked) [C70, 2-(2-methoxyethyl)-N-(3-methoxyphenyl)-1-oxo-3-((trimethylsilyl)ethynyl)-1,2,3,4-tetrahydroisoquinoline-4-carboxamide] | 3.33 (≈ 7.39 µM) |  |  |  | CC50 (Huh-5-2 cells): 125 µg/mL (≈ 277 µM)
COCCN1C(=O)c2cc(F)ccc2C(C(=O)Nc2cccc(OC)c2)C1c1cccs1 (centres unmarked) [C52, 7-Fluoro-2-(2-methoxyethyl)-N-(3-methoxyphenyl)-1-oxo-3-(thiophen-2-yl)-1,2,3,4-tetrahydroisoquinoline-4-carboxamide] | 0.4 (≈ 0.88 µM) | < 0.4 | 81.2 (≈ 179 µM) | > 50 | 
COCCN1C(=O)c2ccccc2C(C(=O)Nc2ccc(C(=O)OC)cc2)C1c1cccs1 (centres unmarked) [C45, Methyl 4-(2-(2-methoxyethyl)-1-oxo-3-(thiophen-2-yl)-1,2,3,4-tetrahydroisoquinoline-4-carboxamido)benzoate] | 0.1 (≈ 0.215 µM) | 12 (≈ 25.8 µM) |  |  | 
COCCN1C(=O)c2ccccc2C(C(=O)Nc2ccc(-n3cccc3)cc2)C1c1ccc(Cl)s1 (centres unmarked) [C153, N-(4-(1H-pyrrol-1-yl)phenyl)-3-(5-chlorothiophen-2-yl)-2-(2-methoxyethyl)-1-oxo-1,2,3,4-tetrahydroisoquinoline-4-carboxamide] | 0.104 (≈ 0.206 µM) | 1.12 (≈ 2.21 µM) |  |  | 
CCOC(=O)c1cccc(NC(=O)C2c3ccccc3C(=O)N(CCOC)C2c2cccs2)c1 (centres unmarked) [C46, Ethyl 3-(2-(2-methoxyethyl)-1-oxo-3-(thiophen-2-yl)-1,2,3,4-tetrahydroisoquinoline-4-carboxamido)benzoate] | 1.4 (≈ 2.93 µM) | 1.19 (≈ 2.49 µM) | 86.3 (≈ 180 µM) | > 50 | 
COCCN1C(=O)c2ccccc2C(C(=O)Nc2ccc(-c3ccccc3)nc2)C1c1cccs1 (centres unmarked) [C186, 2-(2-methoxyethyl)-1-oxo-N-(6-phenylpyridin-3-yl)-3-(thiophen-2-yl)-1,2,3,4-tetrahydroisoquinoline-4-carboxamide] | 0.04 (≈ 0.0827 µM) | 0.045 (≈ 0.0931 µM) | 2.79 (≈ 5.77 µM) | > 50 | 
COCCN1C(=O)c2ccccc2C(C(=O)Nc2ccc3nc(C)ccc3c2)C1c1cccs1 (centres unmarked) [C168, 2-(2-methoxyethyl)-N-(2-methylquinolin-6-yl)-1-oxo-3-(thiophen-2-yl)-1,2,3,4-tetrahydroisoquinoline-4-carboxamide] | 0.037 (≈ 0.0785 µM) | 0.048 (≈ 0.102 µM) |  |  | 
COCCN1C(=O)c2ccccc2C(C(=O)Nc2cccc(OC)c2)C1c1cccs1 (centres unmarked) [2-(2-methoxyethyl)-N-(3-methoxyphenyl)-1-oxo-3-(thiophen-2-yl)-1,2,3,4-tetrahydroisoquinoline-4-carboxamide] |  |  |  |  | CT ([2]; 5 ug/ml): 28.65; Delta CT ([2]; 5 ug/ml): 2.38; CT ([2]; 10 ug/ml): 29.29; Delta CT ([2]; 10 ug/ml): 3.02; CT ([2]; 20 ug/ml): 29.24; Delta CT ([2]; 20 ug/ml): 2.97
COCCN1C(=O)c2ccccc2C(C(=O)Nc2cccc(F)c2)C1c1cccs1 (centres unmarked) [C47, N-(3-fluorophenyl)-2-(2-methoxyethyl)-1-oxo-3-(thiophen-2-yl)-1,2,3,4-tetrahydroisoquinoline-4-carboxamide] | 0.4 (≈ 0.942 µM) | 1.42 (≈ 3.35 µM) |  |  | 
COCCN1C(=O)c2cc(C)ccc2C(C(=O)Nc2cccc(OC)c2)C1c1cccs1 (centres unmarked) [C41, 2-(2-Methoxyethyl)-N-(3-methoxyphenyl)-7-methyl-1-oxo-3-(thiophen-2-yl)-1,2,3,4-tetrahydroisoquinoline-4-carboxamide] | 0.5 (≈ 1.11 µM) | 0.28 (≈ 0.621 µM) | 107 (≈ 238 µM) | > 50 | 
COc1cccc(NC(=O)C2c3ccccc3C(=O)N(CC3CCCO3)C2c2cccs2)c1 (centres unmarked) [C31, N-(3-methoxyphenyl)-1-oxo-2-((tetrahydrofuran-2-yl)methyl)-3-(thiophen-2-yl)-1,2,3,4-tetrahydroisoquinoline-4-carboxamide] | 1.1 (≈ 2.38 µM) | 18 (≈ 38.9 µM) | 66.5 (≈ 144 µM) | > 50 | 
COCCN1C(=O)c2c(ccc(OC)c2F)C(C(=O)Nc2cccc(OC)c2)C1c1cccs1 (centres unmarked) [C128, 8-fluoro-7-methoxy-2-(2-methoxyethyl)-N-(3-methoxyphenyl)-1-oxo-3-(thiophen-2-yl)-1,2,3,4-tetrahydroisoquinoline-4-carboxamide] | 0.4 (≈ 0.826 µM) | 0.14 (≈ 0.289 µM) |  |  | 
COCCN1C(=O)c2ccccc2C(C(=O)Nc2ccc(Oc3cncc(C)n3)cc2)C1c1cccs1 (centres unmarked) [C191, 2-(2-methoxyethyl)-N-(4-(6-methylpyrazin-2-yloxy)phenyl)-1-oxo-3-(thiophen-2-yl)-1,2,3,4-tetrahydroisoquinoline-4-carboxamide] | 0.013 (≈ 0.0253 µM) | 0.013 (≈ 0.0253 µM) |  |  | 
COCCN1C(=O)c2ccccc2C(C(=O)Nc2ccc(-n3cccc3)cc2)C1c1cccs1 (centres unmarked) [C116, N-(4-(1H-pyrrol-1-yl)phenyl)-2-(2-methoxyethyl)-1-oxo-3-(thiophen-2-yl)-1,2,3,4-tetrahydroisoquinoline-4-carboxamide] | 0.04 (≈ 0.0848 µM) | 0.062 (≈ 0.131 µM) | 72.4 (≈ 154 µM) | > 50 | 
COCCN1C(=O)c2ccccc2C(C(=O)Nc2ccc(-c3ccco3)cc2)C1c1cccs1 (centres unmarked) [C159, N-(4-(furan-2-yl)phenyl)-2-(2-methoxyethyl)-1-oxo-3-(thiophen-2-yl)-1,2,3,4-tetrahydroisoquinoline-4-carboxamide] | 0.028 (≈ 0.0593 µM) | 0.064 (≈ 0.135 µM) | > 100 | > 50 | 
